Results on 23 compounds are retold here after patent US7994185B2, “Benzene sulfonamide thiazole and oxazole compounds” (Glaxo Smith Kline LLC, priority 2008, dated 2011).

Like-named read-outs stand apart in the source and are kept apart here.

Assay [1] deals with T1, BRAFV600E full-length (amino acids 2-766) (Homo sapiens, UniProt P15056, V600E).
T1 construct: His6-tagged BRAFV600E full-length (amino acids 2-766); His6; made in house; host or cells: baculovirus expression system (insect cells)
T1 sequence (P15056 2-766 V600E): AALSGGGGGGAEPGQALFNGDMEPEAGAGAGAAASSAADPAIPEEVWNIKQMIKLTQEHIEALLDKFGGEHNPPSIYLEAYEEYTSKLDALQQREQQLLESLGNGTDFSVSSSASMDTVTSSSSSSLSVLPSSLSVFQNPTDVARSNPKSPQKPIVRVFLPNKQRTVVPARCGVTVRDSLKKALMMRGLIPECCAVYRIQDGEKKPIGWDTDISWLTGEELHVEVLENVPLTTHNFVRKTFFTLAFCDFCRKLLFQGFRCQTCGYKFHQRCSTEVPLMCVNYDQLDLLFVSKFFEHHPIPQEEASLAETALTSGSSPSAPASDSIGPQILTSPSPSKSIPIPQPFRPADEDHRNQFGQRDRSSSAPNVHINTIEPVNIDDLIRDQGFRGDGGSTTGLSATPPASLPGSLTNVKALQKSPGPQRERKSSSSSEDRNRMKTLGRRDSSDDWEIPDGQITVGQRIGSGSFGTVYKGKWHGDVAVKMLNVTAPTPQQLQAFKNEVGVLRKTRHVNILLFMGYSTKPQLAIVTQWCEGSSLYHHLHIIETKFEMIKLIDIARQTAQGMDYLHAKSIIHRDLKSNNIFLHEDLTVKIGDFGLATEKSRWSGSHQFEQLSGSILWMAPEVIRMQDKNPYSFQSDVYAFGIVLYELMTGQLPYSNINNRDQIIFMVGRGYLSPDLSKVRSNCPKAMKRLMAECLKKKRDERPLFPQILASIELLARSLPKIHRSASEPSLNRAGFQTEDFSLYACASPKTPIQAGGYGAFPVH
Kind of assay: B-Raf Accelerated MEK ATPase assay (BRAMA). It is filed as biochemical. The following applies: categorized. The essentials:
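Coupled-enzyme readout: ADP generated by MEK-mediated ATP hydrolysis, uncoupled from ERK phosphorylation, is linked to NADH oxidation through pyruvate kinase and lactate dehydrogenase.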

In assay [2] the test system is Human colon tumor cells (Colo205). In words: Cell growth inhibition assay (CellTiter-Glo), Colo205. It is filed as cell-based. The following applies: COLO 205, Table 2b, later runs, average for the one or more runs, categorized, read-out: IC50 for Colo205. In outline:
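Luminescent ATP read-out (CellTiter-Glo) served as a proxy for cell number; percent growth inhibition was calculated against DMSO vehicle wells. Cells were treated for 3 days at 37 °C with serially diluted compound, 0.2% DMSO final.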

Assay [3] has as its system Human melanoma cancer cells (SK-MEL-28). Kind of assay: Cell growth inhibition assay (CellTiter-Glo), SK-MEL-28. The following applies: SK-MEL-28, Table 3b, later runs, average for the one or more runs, categorized, read-out: IC50 for SK-MEL-28. It is filed as cell-based.
Setting [4] is: B-Raf Activity, Table 1a, highest pIC50 for the one or more runs.
The mark [5] stands for this setting: Table 1b, later runs, average pIC50 for the one or more runs, read-out: B-Raf pIC50 (converted).
Where [6] appears, read: B-Raf pIC50, Table 1b, later runs, average pIC50 for the one or more runs.

As for `CC(C)(C)c1nc(-c2cccc(NS(=O)(=O)c3cc(F)ccc3F)c2F)c(-c2ccnc(CCN3CCS(=O)(=O)CC3)n2)s1` [Example 216], the IC50 in assay [1] (setting [4]) was < 100 nM; in assay [1] (setting [5]), 3.16 to 31.6 nM; in assay [2] it was < 100 nM; in assay [3], < 100 nM.
`CC(C)(C)c1nc(-c2cccc(NS(=O)(=O)c3cc(F)ccc3F)c2F)c(-c2ccnc(CCCl)n2)s1` [Example 217]: the IC50 in assay [1] (setting [4]) is < 100 nM; in assay [1] (setting [6]), ≤ 3.16 nM; in assay [2], < 100 nM; in assay [3], < 100 nM.
Consider `CC(C)(C)c1nc(-c2cccc(NS(=O)(=O)c3cccc(F)c3)c2F)c(-c2ccnc(N)n2)s1` [Example 218, N-{3-[5-(2-amino-4-pyrimidinyl)-2-(1,1-dimethylethyl)-1,3-thiazol-4-yl]-2-fluorophenyl}-3-fluorobenzenesulfonamide], for which the IC50 was ≤ 3.16 nM in assay [1] (setting [6]), < 100 nM in assay [2] and < 100 nM in assay [3].
As for `CC(C)(C)c1nc(-c2cccc(NS(=O)(=O)c3ccccc3)c2F)c(-c2ccnc(N)n2)s1` [Example 219, N-{3-[5-(2-amino-4-pyrimidinyl)-2-(1,1-dimethylethyl)-1,3-thiazol-4-yl]-2-fluorophenyl}benzenesulfonamide], the IC50 was 3.16 to 31.6 nM in assay [1] (setting [5]), < 100 nM in assay [2] and < 100 nM in assay [3].
As to `Cc1nccc(-c2sc(C(C)(C)C)nc2-c2c(F)ccc(NS(=O)(=O)c3cccc(F)c3)c2F)n1` [Example 220, N-{3-[2-(1,1-dimethylethyl)-5-(2-methyl-4-pyrimidinyl)-1,3-thiazol-4-yl]-2,4-difluorophenyl}-3-fluorobenzenesulfonamide], the values for the IC50 in assay [1] (setting [5]), in assay [2] and in assay [3] were 3.16 to 31.6 nM, < 100 nM and < 100 nM, respectively.
For the compound `CC(C)(C)c1nc(-c2c(F)ccc(NS(=O)(=O)c3cccc(F)c3)c2F)c(-c2ccncn2)s1` [Example 221, N-{3-[2-(1,1-dimethylethyl)-5-(4-pyrimidinyl)-1,3-thiazol-4-yl]-2,4-difluorophenyl}-3-fluorobenzenesulfonamide], the values for the IC50 in assay [1] (setting [6]), in assay [2] and in assay [3] were ≤ 3.16 nM, < 100 nM and < 100 nM, respectively.
Consider `Cc1nccc(-c2sc(C(C)(C)C)nc2-c2cccc(NS(=O)(=O)c3cccc(F)c3)c2F)n1` [Example 222, N-{3-[2-(1,1-dimethylethyl)-5-(2-methyl-4-pyrimidinyl)-1,3-thiazol-4-yl]-2-fluorophenyl}-3-fluorobenzenesulfonamide], for which the IC50 in assay [1] (setting [5]) is 3.16 to 31.6 nM; in assay [2], < 100 nM; in assay [3], < 100 nM.
As to `CC(C)(C)c1nc(-c2cccc(NS(=O)(=O)c3cccc(F)c3)c2F)c(-c2ccncn2)s1` [Example 223, N-{3-[2-(1′-dimethylethyl)-5-(4-pyrimidinyl)-1,3-thiazol-4-yl]-2-fluorophenyl}-3-fluorobenzenesulfonamide], the IC50 is ≤ 3.16 nM in assay [1] (setting [6]), < 100 nM in assay [2] and < 100 nM in assay [3].
As for `CC(C)(C)c1nc(-c2cccc(NS(=O)(=O)c3ccccc3F)c2F)c(-c2ccncn2)s1` [Example 224, N-{3-[2-(1,1-dimethylethyl)-5-(4-pyrimidinyl)-1,3-thiazol-4-yl]-2-fluorophenyl}-2-fluorobenzenesulfonamide], the IC50 was ≤ 3.16 nM in assay [1] (setting [6]), < 100 nM in assay [2] and < 100 nM in assay [3].
Take `Cc1nccc(-c2sc(C(C)(C)C)nc2-c2cccc(NS(=O)(=O)c3ccccc3F)c2F)n1` [Example 225, N-{3-[2-(1,1-dimethylethyl)-5-(2-methyl-4-pyrimidinyl)-1,3-thiazol-4-yl]-2-fluorophenyl}-2-fluorobenzenesulfonamide]: the IC50 is 3.16 to 31.6 nM in assay [1] (setting [5]), < 100 nM in assay [2] and < 100 nM in assay [3].
In the case of `CCOC(=O)CCc1nccc(-c2sc(C(C)(C)C)nc2-c2cccc(NS(=O)(=O)c3c(F)cccc3F)c2F)n1` [Example 226, ethyl 3-{4-[4-(3-{[(2,6-difluorophenyl)sulfonyl]amino}-2-fluorophenyl)-2-(1,1-dimethylethyl)-1,3-thiazol-5-yl]-2-pyrimidinyl}propanoate], the IC50 in assay [1] (setting [6]) was ≤ 3.16 nM; in assay [2] it was < 100 nM; in assay [3], < 100 nM.
As to `O=S(=O)(Nc1cccc(-c2nc(N3CCOCC3)sc2-c2ccncn2)c1F)c1cc(F)ccc1F` [Example 227, 2,5-difluoro-N-{2-fluoro-3-[2-(4-morpholinyl)-5-(4-pyrimidinyl)-1,3-thiazol-4-yl]phenyl}benzenesulfonamide], the IC50 is ≤ 3.16 nM in assay [1] (setting [6]), < 100 nM in assay [2] and < 100 nM in assay [3].
Turning to `CC(C)(C)c1nc(-c2cccc(NS(=O)(=O)c3cc(F)ccc3F)c2Cl)c(-c2ccncn2)s1` [Example 228, N-{2-chloro-3-[2-(1,1-dimethylethyl)-5-(4-pyrimidinyl)-1,3-thiazol-4-yl]phenyl}-2,5-difluorobenzenesulfonamide], the IC50 in assay [1] (setting [6]) was ≤ 3.16 nM; in assay [2] it was < 100 nM; in assay [3], < 100 nM.
Consider `Cc1nccc(-c2sc(C(C)(C)C)nc2-c2cccc(NS(=O)(=O)c3cc(F)ccc3F)c2Cl)n1` [Example 229, N-{2-chloro-3-[2-(1,1-dimethylethyl)-5-(2-methyl-4-pyrimidinyl)-1,3-thiazol-4-yl]phenyl}-2,5-difluorobenzenesulfonamide], for which the IC50 in assay [1] (setting [5]) is 3.16 to 31.6 nM; in assay [2], < 100 nM; in assay [3], < 100 nM.
`CC(C)(C)c1nc(-c2cccc(NS(=O)(=O)c3cccnc3)c2F)c(-c2ccnc(N)n2)s1` [Example 230, N-{3-[5-(2-amino-4-pyrimidinyl)-2-(1,1-dimethylethyl)-1,3-thiazol-4-yl]-2-fluorophenyl}-3-pyridinesulfonamide]: the IC50 was ≤ 3.16 nM in assay [1] (setting [6]), < 100 nM in assay [2] and < 100 nM in assay [3].
As to `CC(C)(C)c1nc(-c2cccc(NS(=O)(=O)c3ccco3)c2F)c(-c2ccnc(N)n2)s1` [Example 231, N-{3-[5-(2-amino-4-pyrimidinyl)-2-(1,1-dimethylethyl)-1,3-thiazol-4-yl]-2-fluorophenyl}-2-furansulfonamide], the IC50 is ≤ 3.16 nM in assay [1] (setting [6]), < 100 nM in assay [2] and < 100 nM in assay [3].
As to `CC(C)(C)c1nc(-c2cccc(NS(=O)(=O)c3cccs3)c2F)c(-c2ccnc(N)n2)s1` [Example 232, N-{3-[5-(2-amino-4-pyrimidinyl)-2-(1,1-dimethylethyl)-1,3-thiazol-4-yl]-2-fluorophenyl}-2-thiophenesulfonamide], the IC50 in assay [1] (setting [6]) was ≤ 3.16 nM; in assay [2], < 100 nM; in assay [3] it was < 100 nM.
For `CC(C)(C)c1nc(-c2cccc(NS(=O)(=O)c3ccsc3)c2F)c(-c2ccnc(N)n2)s1` [Example 233, N-{3-[5-(2-amino-4-pyrimidinyl)-2-(1,1-dimethylethyl)-1,3-thiazol-4-yl]-2-fluorophenyl}-3-thiophenesulfonamide], the IC50 in assay [1] (setting [6]) is ≤ 3.16 nM; in assay [2], < 100 nM; in assay [3], < 100 nM.
Consider `CC(C)(C)c1nc(-c2cccc(NS(=O)(=O)c3ccoc3)c2F)c(-c2ccnc(N)n2)s1` [Example 234, N-{3-[5-(2-amino-4-pyrimidinyl)-2-(1,1-dimethylethyl)-1,3-thiazol-4-yl]-2-fluorophenyl}-3-furansulfonamide], for which the IC50 in assay [1] (setting [6]) is ≤ 3.16 nM; in assay [2] it was < 100 nM; in assay [3], < 100 nM.
As for `Cc1csc(S(=O)(=O)Nc2cccc(-c3nc(C(C)(C)C)sc3-c3ccnc(N)n3)c2F)c1` [Example 235, N-{3-[5-(2-amino-4-pyrimidinyl)-2-(1,1-dimethylethyl)-1,3-thiazol-4-yl]-2-fluorophenyl}-4-methyl-2-thiophenesulfonamide], the IC50 is 3.16 to 31.6 nM in assay [1] (setting [5]), < 100 nM in assay [2] and < 100 nM in assay [3].
In the case of `CC(C)(C)c1nc(-c2cccc(NS(=O)(=O)c3c(F)cccc3F)c2Cl)c(-c2ccnc(N)n2)s1` [Example 236, N-{3-[5-(2-amino-4-pyrimidinyl)-2-(1,1-dimethylethyl)-1,3-thiazol-4-yl]-2-chlorophenyl}-2,6-difluorobenzenesulfonamide], the IC50 in assay [1] (setting [6]) was ≤ 3.16 nM; in assay [2], < 100 nM; in assay [3], < 100 nM.
As to `CC(C)(C)c1nc(-c2cccc(NS(=O)(=O)c3c(F)cccc3F)c2Cl)c(-c2ccncn2)s1` [Example 237, N-{2-chloro-3-[2-(1,1-dimethylethyl)-5-(4-pyrimidinyl)-1,3-thiazol-4-yl]phenyl}-2,6-difluorobenzenesulfonamide], the results for the IC50 in assay [1] (setting [5]), in assay [2] and in assay [3] were 3.16 to 31.6 nM, < 100 nM and < 100 nM, respectively.
With `Nc1nccc(-c2sc(C3CCOCC3)nc2-c2cccc(NS(=O)(=O)c3c(F)cccc3F)c2Cl)n1` [Example 238, N-{3-[5-(2-amino-4-pyrimidinyl)-2-(tetrahydro-2H-pyran-4-yl)-1,3-thiazol-4-yl]-2-chlorophenyl}-2,6-difluorobenzenesulfonamide], the IC50 in assay [1] (setting [6]) is ≤ 3.16 nM; in assay [2], < 100 nM; in assay [3] it was < 100 nM.
